Test results from patent publication US9260326B2, “Selective oxoanion separation using a tripodal ligand” (UT-BATTELLE, LLC, priority 2012, dated 2016).

Tests used:
[1] = Pairwise competitive crystallization with L1, Na-based system
Description: (§1) The experiments described below were generally conducted as described above and as described in Rajbanshi et al. 2012.
To assess the size recognition of the crystalline capsule in the Na-based system, similar pairwise competitive crystallization experiments were performed with L1 (two equivalents) and Na2SO4/Na2SeO4 mixtures (one equivalent each) in H2O/MeOH. […] The SO4^2−/SeO4^2− molar ratio found in the crystalline solid resulting from the competitive crystallization was 31.3, indicating strong size recognition for SO4^2−. […] The increased SO4^2−/SeO4^2− selectivity in the Na-based system may be attributed to the smaller size of the Na capsule (d(N . . . N)=9.51 Å) compared to the Mg capsule (d(N . . . N)=9.65 Å), which favored the smaller sulphate anion.
In comparison with the good SO4^2−/SeO4^2− selectivity observed in the Na-based crystallizations, the competitive crystallization experiment involving a Na2SO4/Na2CrO4 mixture under similar conditions yielded crystals with a SO4^2−/CrO4^2− ratio of only 2.0. […] As a result, binding of chromate is inherently favored due to its stronger hydrogen bond acceptor ability compared to sulphate, a factor that apparently offsets much of the size discrimination effect.

[2] = Pairwise competitive crystallization with L1, K-based system
Excerpt: as §1
For the K-based system, pairwise competitive crystallizations with L1 gave SO4^2/SeO4^2− selectivity and SO4^2−/CrO4^2− selectivity ratios of 13.3 and 1.1, respectively. The potassium capsule was the smallest of the three systems (d(N . . . N)=9.21 Å).

[3] = Relative solubility in water; assay type: physicochemical; conditions: pure water
Excerpt: The final crystalline solid was isolated in 90% yield, and its PXRD and FTIR spectra corresponded to those of pure Compound 1 (FIG. 4). The relatively long reaction time required to convert L1 to Compound 1 appeared to proceed via a three-phase process involving slow dissolution of L1 and its recrystallization into Compound 1.

[4] = Mg-based system (Rajbanshi et al. 2012); cited from earlier work
[5] = Sulfate separation and L1 recycling, Mg-based system, Simulant 1
Description: For comparison purposes, solid L1.2H2O (478 mg, 0.88 mmol) and Mg(NO3)2 (113 mg, 0.44 mmol) were added to 10 mL of Simulant 1 solution (Table 1) containing 0.44 mmol SO4^2−. The mixture was stirred magnetically at room temperature for 48 h, and the resulting solid was filtered, washed with water, and dried. The identity of the crystalline product, MgSO4(L1)2(H2O)6 (Compound 3) was confirmed by PXRD and FTIR spectroscopy.
To recover and recycle L1, crystals of Compound 3 (457 mg, 0.368 mmol) were dissolved in 1 M HNO3 (1 mL) to form a clear solution to which was added 1 M NaOH (2 mL). The mixture was stirred at room temperature overnight, and the resulting solid was filtered, washed with water, and dried. Yield: 388 mg. […] The solid mixture of L1.2H2O and Mg(OH)2 could be recycled by adding it to a fresh solution of the simulant, thereby initiating another separation cycle.
The recovered solid L1 and magnesium hydroxide were then added to a fresh simulant solution to start another cycle. Such cycling was repeated twice more. […] This established that the ligand is robust enough to survive at least three recovery cycles. Although this magnesium-based system is not applicable to the full alkaline conditions encountered in the nuclear waste, the ease of operation coupled with high efficiency and good ligand recyclability opens the door to other industrial sulfate separations from simpler, less basic aqueous solutions.

solubility relative to Compound 1 [3]: less soluble than Compound 1
Structure (SMILES): O=C(NCCN(CCNC(=O)Nc1cccnc1)CCNC(=O)Nc1cccnc1)Nc1cccnc1 [Compound L1]
molar ratio of sulphate over competing carbonate in crystals ([1]; L1 2 equiv, Na2SO4 and Na2CO3 1 equiv each, H2O/MeOH, elemental analysis): 11.5
molar ratio of sulphate over competing sulphite in crystals ([1]; L1 2 equiv, Na2SO4 and Na2SO3 1 equiv each, H2O/MeOH, elemental analysis): 5.9
SO4^2−/CrO4^2− ratio in crystals ([1]; Na2SO4/Na2CrO4 mixture): 2.0
SO4^2−/CrO4^2− selectivity ratio [2]: 1.1
SO4^2−/SeO4^2− selectivity ratio [2]: 13.3
SO4^2−/SeO4^2− ratio [4]: 3
recovery of sulfate ([5]; Simulant 1, first listed cycle): 99.6%
recovery of sulfate ([5]; Simulant 1, second listed cycle): 99.4%
recovery of sulfate ([5]; Simulant 1, third listed cycle): 97.9%
